# How the values were obtained:
# late watergrass = experiment: Test Example 2: herbicidal activity, application during weed generation under submerged conditions (Table 17, symbol A); format: in vivo, late watergrass (Echinochloa oryzicola); settings: AAH 320 g/ha; application during weed generation, submerged conditions
# Summary of the method: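 Wagner pot, alluvial soil, 4 cm flood; mixed sowing of all species; greenhouse 25° C.–30° C. Emulsifiable formulation, water-diluted to predetermined dose, applied to paddy water at 1–2 leaf stage. Effect rated at 3 wk using the earlier test's scoring criteria.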
# lambsquarters = experiment: Test Example 5: herbicidal effect by foliage application, plastic box (Table 20, symbol O); format: in vivo, lambsquarters (Chenopodium album); settings: foliage application, 320 g/ha, three weeks after application
# Summary of the method: (§1)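 Post-emergence foliar test in sterilized diluvial soil. Compound applied as water-diluted emulsion at a predetermined rate to 14-day-old plants; evaluation at three weeks.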
# Chinese sprangletop = experiment: Test Example 3: herbicidal effect by foliage application, Wagner pot (Table 18, symbol D); format: in vivo, chinese sprangletop (Leptochloa chinensis)
# Summary of the method: (§2)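 Plants were sown in alluvial soil held under 0.1–0.5 cm standing water and grown 14 days in a greenhouse at 25–30 °C. An emulsifiable formulation, water-diluted to the set dose, was then sprayed onto the foliage, and effects were scored three weeks later using previously defined criteria.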
# beet = experiment: Test Example 4: effect on crop by soil treatment (Table 19, symbol f); format: in vivo; settings: amount of applied herbicide 320 g/ha
# Summary of the method: (§3)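 Emulsion of test compound, water-diluted to predetermined amount, sprayed on soil after sowing (seed depth ~1.5 cm, sterilized diluvial soil). Greenhouse, 25–30° C. Effect graded at three weeks post-spray.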
# barnyard grass [1] = experiment: Test Example 4: herbicidal effect by soil treatment (Table 19, symbol H); format: in vivo, barnyard grass (Echinochloa crus-galli); settings: amount of applied herbicide 320 g/ha
# Summary of the method: as §3
# southern crabgrass = experiment: Test Example 4: herbicidal effect by soil treatment (Table 19, symbol F); format: in vivo, southern crabgrass (Digitaria ciliaris); settings: amount of applied herbicide 320 g/ha
# Summary of the method: as §3
# oval-leafed pondweed = experiment: Test Example 1: herbicidal activity, application before weed generation under submerged conditions (Table 16, symbol C); format: in vivo, oval-leafed pondweed (Monochoria vaginalis); settings: amount of applied herbicide 320 g/ha
# Summary of the method: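 Submerged Wagner pots (alluvial soil, 4 cm water) sown with weed seeds and planted with 2.5-leaf rice seedlings; emulsifiable concentrate diluted in water applied to water surface on sowing day. Held in greenhouse at 25-30 °C; injury scored 0-5 by herbicidal rate after three weeks.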
# chickweed = experiment: Test Example 4: herbicidal effect by soil treatment (Table 19, symbol P); format: in vivo, common chickweed (Stellaria media); settings: amount of applied herbicide 320 g/ha
# Summary of the method: as §3
# rapeseed = experiment: Test Example 4: effect on crop by soil treatment (Table 19, symbol g); format: in vivo; settings: amount of applied herbicide 320 g/ha
# Summary of the method: as §3
# rice flat sedge = experiment: Test Example 3: herbicidal effect by foliage application, Wagner pot (Table 18, symbol E); format: in vivo, rice flat sedge (Cyperus iria)
# Summary of the method: as §2
# windgrass = experiment: Test Example 4: herbicidal effect by soil treatment (Table 19, symbol L); format: in vivo, windgrass (Apera spica-venti); settings: amount of applied herbicide 320 g/ha
# Summary of the method: as §3
# persian speedwell = experiment: Test Example 5: herbicidal effect by foliage application, plastic box (Table 20, symbol R); format: in vivo, Persian speedwell (Veronica persica); settings: foliage application, 320 g/ha, three weeks after application
# Summary of the method: as §1
# barnyard grass [2] = experiment: Test Example 3: herbicidal effect by foliage application, Wagner pot (Table 18, symbol H); format: in vivo, barnyard grass (Echinochloa crus-galli)
# Summary of the method: as §2
# false cleavers [3] = experiment: Test Example 4: herbicidal effect by soil treatment (Table 19, symbol Q); format: in vivo, false cleavers (Galium spurium); settings: amount of applied herbicide 320 g/ha
# Summary of the method: as §3
# redroot pigweed = experiment: Test Example 5: herbicidal effect by foliage application, plastic box (Table 20, symbol N); format: in vivo, redroot pigweed (Amaranthus retroflexus); settings: foliage application, 320 g/ha, three weeks after application
# Summary of the method: as §1
# false cleavers [4] = experiment: Test Example 5: herbicidal effect by foliage application, plastic box (Table 20, symbol Q); format: in vivo, false cleavers (Galium spurium); settings: foliage application, 320 g/ha, three weeks after application
# Summary of the method: as §1
# [5] = amount of applied herbicide 320 g/ha
Structure (SMILES),"herbicidal effect rating, A: late watergrass (late watergrass)","H: barnyard grass, herbicidal effect grade (barnyard grass [1])","F: southern crabgrass, herbicidal effect grade (southern crabgrass)","Herbicidal effect, C: oval-leafed pondweed (oval-leafed pondweed)","P: chickweed, herbicidal effect grade (chickweed)","L: windgrass, herbicidal effect grade (windgrass)","O: lambsquarters, herbicidal effect grade (lambsquarters)","N: redroot pigweed, herbicidal effect grade (redroot pigweed)","R: persian speedwell, herbicidal effect grade (persian speedwell)","Q: false cleavers, herbicidal effect grade (false cleavers [4])",other results
"COc1ccc(-c2oc3ccc(F)cc3c2-c2c(O)c(C)nn(C)c2=O)cc1 [Compound No. 9-020, 4-(5-fluoro-2-(4-methoxyphenyl)benzofuran-3-yl)-5-hydroxy-2,6-dimethylpyridazin-3(2H)-one]",3 (Herbicidal rate of 40% or more and less than 70%),4 (Herbicidal rate of 70% or more and less than 90%),4 (Herbicidal rate of 70% or more and less than 90%),5 (Herbicidal rate of 90% or more (almost completely withered)),4 (Herbicidal rate of 70% or more and less than 90%),2 (Herbicidal rate of 20% or more and less than 40%),,,,,"herbicidal effect on lambsquarters (O) (lambsquarters): 5 (Herbicidal rate of 90% or more (almost completely withered)); Herbicidal effect on D (Chinese sprangletop), foliage application (Chinese sprangletop; [5]): 4 (Herbicidal rate of 70% or more and less than 90%); melting point: 248 to 250 °C; f: beet, effect on crop grade (beet): 4 (Herbicidal rate of 70% or more and less than 90%); g: rapeseed, effect on crop grade (rapeseed): 5 (Herbicidal rate of 90% or more (almost completely withered)); Herbicidal effect on E (rice flat sedge), foliage application (rice flat sedge; [5]): 5 (Herbicidal rate of 90% or more (almost completely withered)); herbicidal effect on persian speedwell (R) (persian speedwell): 5 (Herbicidal rate of 90% or more (almost completely withered)); Herbicidal effect on H (barnyard grass), foliage application (barnyard grass [2]; [5]): 5 (Herbicidal rate of 90% or more (almost completely withered))"
COc1ccccc1-c1sc2cc(F)ccc2c1-c1c(O)c(C)nn(C)c1=O [3-003],2 (Herbicidal rate of 20% or more and less than 40%),,,5 (Herbicidal rate of 90% or more (almost completely withered)),,,4 (Herbicidal rate of 70% or more and less than 90%),5 (Herbicidal rate of 90% or more (almost completely withered)),5 (Herbicidal rate of 90% or more (almost completely withered)),5 (Herbicidal rate of 90% or more (almost completely withered)),"herbicidal effect, Q: false cleavers (false cleavers [3]): 4 (Herbicidal rate of 70% or more and less than 90%); herbicidal effect on D: Chinese sprangletop (Chinese sprangletop; [5]): 3 (Herbicidal rate of 40% or more and less than 70%); herbicidal effect, H: barnyard grass (barnyard grass [1]): 4 (Herbicidal rate of 70% or more and less than 90%); herbicidal effect, F: southern crabgrass (southern crabgrass): 4 (Herbicidal rate of 70% or more and less than 90%); herbicidal effect, P: chickweed (chickweed): 4 (Herbicidal rate of 70% or more and less than 90%); herbicidal effect on E: rice flat sedge (rice flat sedge; [5]): 5 (Herbicidal rate of 90% or more (almost completely withered)); herbicidal effect, L: windgrass (windgrass): 3 (Herbicidal rate of 40% or more and less than 70%); herbicidal effect on H: barnyard grass (barnyard grass [2]; [5]): 5 (Herbicidal rate of 90% or more (almost completely withered))"
CCCC(=O)Oc1c(C)nn(C)c(=O)c1-c1c(-c2ccccc2)sc2cc(OC)ccc12 [3-062],0 (Herbicidal rate of 5% or less (almost no effect)),0 (Herbicidal rate of 5% or less (almost no effect)),0 (Herbicidal rate of 5% or less (almost no effect)),4 (Herbicidal rate of 70% or more and less than 90%),4 (Herbicidal rate of 70% or more and less than 90%),0 (Herbicidal rate of 5% or less (almost no effect)),2 (Herbicidal rate of 20% or more and less than 40%),2 (Herbicidal rate of 20% or more and less than 40%),3 (Herbicidal rate of 40% or more and less than 70%),4 (Herbicidal rate of 70% or more and less than 90%),"Q: false cleavers, herbicidal effect grade (false cleavers [3]): 2 (Herbicidal rate of 20% or more and less than 40%); herbicidal effect on Chinese sprangletop (D) (Chinese sprangletop; 320 g/ha): 1 (Herbicidal rate of 5% or more and less than 20%); herbicidal effect on rice flat sedge (E) (rice flat sedge; 320 g/ha): 5 (Herbicidal rate of 90% or more (almost completely withered)); herbicidal effect on barnyard grass (H) (barnyard grass [2]; 320 g/ha): 2 (Herbicidal rate of 20% or more and less than 40%)"
